Measurements from the METLIN SMRT retention time set (Domingo-Almenara et al. 2019).

assay: gradient 5% acetonitrile 3 min, to 50% in 2 min, to 85% in 15 min, held 3 min, 100 µL/min; details: column: Zorbax Extend-C18 2.1 x 50 mm; eluents: water / acetonitrile, 0.1% formic acid
Summary of the method: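 Retention time was recorded from adduct peaks, which were picked computationally and each inspected manually. Pure standards ran in mixtures of ~100 molecules on HPLC coupled to a quadrupole time-of-flight mass spectrometer, in positive and negative ionization mode, through a Zorbax Extend-C18 column (2.1 × 50 mm, 1.8 μm) at 100 μL/min. Eluents were water and acetonitrile, each with 0.1% formic acid.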

Compound | RP-LC retention time
CCOC(=O)c1[nH]c(C)c(CCC(=O)N2CCCC(C(=O)N3CCCCCC3)C2)c1C (configuration not stated) | 800 s
CC(Cc1ccco1)NC(=O)C1CCN(S(=O)(=O)c2ccc3c(c2)sc(=O)n3C)CC1 (configuration not stated) | 807 s
O=C(NCCN1CCOCC1)C1CCN(c2nc3cccnc3s2)CC1 | 570 s
CC(C)n1c(=O)sc2cc(S(=O)(=O)N3CCC(C(=O)N(C)C4CCCCC4)CC3)ccc21 | 716 s
Cc1cc(C)c(S(=O)(=O)N2CCC3(CC2)NCCN=C3NCc2ccccc2C)cc1C | 815 s
Cc1cccc(Sc2nccnc2N2CCCC(C(=O)NC3CCCCCC3)C2)c1 (configuration not stated) | 1230 s
Cc1oc(-c2[nH]ncc2C(=O)N(C)C)cc1S(=O)(=O)Nc1cccc(Cl)c1C | 725 s
Cn1cc(-c2cc3n(n2)CCCN3C(=O)CCC(=O)NCCCN2CCOCC2)c2ccccc21 | 611 s
CC(C)c1c(C2CCN(C(=O)c3cccc(Br)c3)CC2)noc1N | 834 s
Cc1cc(C)c(NC(=O)Cn2c(C)nc3onc(C)c3c2=O)c(C)c1 | 814 s
COc1ccc(CN2CCC(NC(=O)CCc3c(C)noc3C)C2)cn1 (configuration not stated) | 571 s
CCn1cc(S(=O)(=O)N2CCCC(n3c(C)cnc3-c3ccccc3)C2)cn1 (configuration not stated) | 639 s
Cc1oc(C2CCN(C(=O)Cc3ccccc3Cl)CC2)nc1C(=O)N1CCCC1 | 820 s
Cc1ccc(NC(=O)NCC2CCOCC2)cc1F | 710 s
CCOCCCNCc1ccc(-c2ccc(OC)c(Cl)c2)o1 | 705 s
O=C(Nc1ccc2cn[nH]c2c1)c1ccc(=O)[nH]n1 | 567 s
CCCC(=O)Nc1ccc2c(c1)CN(C(=O)c1c(F)cccc1Cl)C(C(=O)N(C)C)C2 (configuration not stated) | 727 s

Compound | RP-LC retention time
Cc1ccc(N2CC(NC(=O)Nc3ncccc3C)CC2=O)cc1 (configuration not stated) | 573 s
Cc1cc(C)n(-c2cc(NCc3ccccn3)ncn2)n1 | 600 s
C1CCC(C(CC2CCCCN2)C2CCCCC2)CC1 (configuration not stated) | 1060 s
COC1CCC12CCN(Cc1cccc(C#N)c1)CC2 (configuration not stated) | 597 s
CC(C)CCNC(=O)C1(C)Cn2nc(C(=O)NCCc3ccc(Cl)cc3)cc2C(=O)N1C (configuration not stated) | 845 s
O=C(Cc1ccc(F)cc1)N1CCN(C(=O)c2nnn3c2COC(c2ccccc2)C3)CC1 (configuration not stated) | 864 s
O=C(c1cccnc1)N1CCN(c2nnnn2-c2ccccc2)CC1 | 588 s
CCCCN1C(=O)C(CC(=O)NCCC)Sc2ncccc21 (configuration not stated) | 750 s
CC(C)CCOc1cccc(OCC(=O)NCC(=O)O)c1 | 772 s
CCCCN(CC)C(=O)C1CCN(S(=O)(=O)c2ccc3c(c2)NC(=O)CO3)CC1 | 784 s
CC(=O)N1CC[C@]2(CO)CN(C(=O)c3ccoc3C)C[C@@H]2C1 | 583 s
CC1(C)C(=O)NCCN1C(=O)c1cccc(Br)c1 | 649 s
Cn1c(=O)c(N2CCC(C(=O)NCCCN3CCCC3=O)CC2)nc2ccccc21 | 645 s
CCN1CCN(c2cc(C)c3cc(NC(=S)NCc4ccc5c(c4)OCO5)ccc3n2)CC1 | 590 s
CCCS(=O)(=O)c1nc2ccc(NS(=O)(=O)c3cccc4nsnc34)cc2s1 | 878 s
O=S(=O)(c1ccccc1)N1CCCC(c2nc(CCOCC3CC3)no2)C1 (configuration not stated) | 924 s
O=C(Nc1ccc(N2CCN(C3CCCCC3)C2=O)nc1)c1cc(F)cc(F)c1 | 1020 s

Now from value to compound:

RP-LC retention time | Compound
782 s | O=C1CC(/C=C/c2ccccc2)Cc2nc(N3CCN(Cc4ccc5c(c4)OCO5)CC3)ncc21 (configuration not stated)
812 s | [O-][n+]1nc2ccccc2c2ccccc21
1040 s | COc1ccc(-c2nnc(Cc3nc(-c4ccc(SC)cc4)no3)o2)cc1
841 s | O=C(CCSc1ccccc1)NCC(O)c1cccc2ccccc12 (configuration not stated)
991 s | CCCOc1ccccc1C(=O)Nc1nonc1-c1ccccc1
870 s | CSc1ccc(CNC(=O)c2cc3c(=O)n(Cc4ccccc4)ccc3nc2C)cc1
997 s | O=C(Cn1cccc1-c1nnc(-c2ccccc2)o1)Nc1ccc(F)c(F)c1
639 s | O=C(NCCc1c[nH]c2ccc(Cl)cc12)c1ccncc1
1290 s | Fc1ccc(OCc2nc(-c3cccc(-c4csc(C5CC5)n4)c3)no2)cc1
851 s | CC(C)OCCCNC(=O)c1cn(C)cc2c(=O)n(-c3ccccc3)nc1-2
811 s | COc1ccccc1NC(=O)N1CCC(CNC(=O)c2cc(Cl)ccc2Cl)CC1
849 s | COc1ccc(OC)c(NC(=O)C2CC(=O)N(CCc3c[nH]c4ccc(Cl)cc34)C2)c1 (configuration not stated)
910 s | Cc1ccc(C)c(-n2ccn(Cc3nc(-c4ccc(F)cc4)no3)c(=O)c2=O)c1
740 s | CCOc1ccc(NC(=O)Nc2cccc(-c3ccc(N4CCCCC4)nn3)c2)cc1
702 s | CCN1C(=O)c2cccnc2Sc2cc(CNC(=O)c3ccccc3F)ccc21
871 s | COc1ccc(Cl)cc1N(C)C(=O)C1CCCN(c2ncnc3c2nc2n3CCCCC2)C1 (configuration not stated)
873 s | COc1ccccc1-n1ccn2cc(-c3cccc(Cl)c3)nc2c1=O

RP-LC retention time | Compound
838 s | CCN(C(=O)Cn1ccn2nc(-c3ccccc3)c(CO)c2c1=O)c1ccccc1
790 s | O=C(CSc1ccc(F)cc1)Nc1nnc(COc2ccccc2)o1
789 s | Cc1nnc(N2CCCC(C(=O)NCCc3ccccc3)C2)c2nn(-c3ccc(Cl)cc3)c(C)c12 (configuration not stated)
581 s | COc1nn(C)cc1C(=O)NCC(c1ccco1)N1CCN(c2ccc(F)cc2)CC1 (configuration not stated)
979 s | Cn1nc(-c2nnc(-c3ccccc3)o2)c2c1CCN(S(=O)(=O)c1ccc(F)c(Cl)c1)C2
914 s | COc1cccc(-c2cn3ccn(-c4ccc5c(c4)CCC5)c(=O)c3n2)c1
752 s | COc1ccccc1N1CC(c2nc3ccccc3n2CC(=O)N(C(C)C)C(C)C)CC1=O (configuration not stated)
1100 s | O=C(Nc1cccc([N+](=O)[O-])c1)c1cc2ccccc2cc1O
1020 s | COc1ccc(OC)c(-c2ccc(=O)n(CCc3nc(-c4ccc(C)cc4)no3)n2)c1
948 s | COc1ccccc1CC1C(=O)Nc2ccc(Cl)cc21 (configuration not stated)
774 s | Cn1c(=O)c(N2CCC(C(=O)NCc3ccco3)CC2)nc2ccccc21
738 s | COc1ccc(C(=O)NC2CCN(c3cc(-c4ccc(Cl)cc4)[nH]n3)C2)cc1OC (configuration not stated)
798 s | COc1cccc(CC(=O)N2CCC3(CC2)NC(=O)c2cc(C)ccc2N3C)c1
687 s | O=C(Nc1cccc(-c2cn3cccnc3n2)c1)c1cccc([N+](=O)[O-])c1
1060 s | COc1ccc(-c2ncc3c(n2)CCN(S(=O)(=O)c2ccc(F)c(F)c2)C3)cc1
679 s | O=C(CC1=NS(=O)(=O)c2ccccc2N1)Nc1ccc(F)cc1F
